≈ marks a conversion by molar mass, not a printed value.
Assays:
Type in all cases: cell-based
C. albicans = assay: In vitro antibacterial (antifungal) test, two-fold dilution MIC; conditions: Candida albicans, read-out: MIC C. albicas
Protocol: (§1) In vitro antibacterial experiments of 25 compounds as anti-bacterial and anti-cancer compounds in the patent were tested using 14 kinds of bacteria. Tested bacteria: C. albicans, C. tropicalis, C. neoformans, E. floccosum, M. gypseum, A. niger, S. schenekn, C. parapsilosis, C. glabrata, C. Krusei, Trichoderma, Gibberella, Setrosphaeria turcica, Fusarium Oxysporum Vasinfectum. (Bacteria were from the Dermatology Hospital of Chinese Academy of Medical Sciences, Nanjing, China.)
(§2) The Preparation of tested Bacteria solution was following: incubated Bacteria were added to 5 ml physiological saline, and then they were mashed and placed with ultrasound. The solution was fully mixed, and insoluble substances were removed. The treated solution was called the original bacterium solution. In the test, the bacteria concentration in the original bacterium solution was adjusted to […].
(§3) Tested Methods: the tested compounds were dissolved in dimethyl sulfoxide. and the solution was diluted with sterile distilled water. And the distilled solution was added to sterilized RPMI 1640 medium. The concentration of the compounds were adjusted to 256, 128, 64, 32, 16, 8, 4, 2, 1, 0.5, 0.25, 0.125 ug*ml-1. Then the adjusted solutions were inoculated with tested bacteria, and the tested systems were placed in the constant temperature oven to culture for 2-7 days. The concentration at which there was no growing of fungi was taken as the minimum inhibitory concentration (MIC).

C. glabrata = assay: as above; conditions: Nakaseomyces glabratus, RPMI 1640, culture 2-7 days
Protocol: as §1, §2, §3

C. neoformans = assay: as above; conditions: Cryptococcus neoformans, RPMI 1640, culture 2-7 days
Protocol: as §1, §2, §3

C. parapsilosis = assay: as above; conditions: Lodderomyces parapsilosis, RPMI 1640, culture 2-7 days
Protocol: as §1, §2, §3

C. tropicalis = assay: as above; conditions: Candida tropicalis, RPMI 1640, culture 2-7 days
Protocol: as §1, §2, §3

E. floccosum = assay: as above; conditions: Epidermophyton floccosum, RPMI 1640, culture 2-7 days
Protocol: as §1, §2, §3

[1] = tested on: Fusarium oxysporum vasinfectum; assay: as above; conditions: RPMI 1640, culture 2-7 days
Protocol: as §1, §2, §3

M. gypseum = assay: as above; conditions: Nannizzia gypsea, RPMI 1640, culture 2-7 days
Protocol: as §1, §2, §3

S. schenekn = assay: as above; conditions: RPMI 1640, culture 2-7 days
Protocol: as §1, §2, §3

Terchoderma = assay: as above; conditions: Trichoderma, RPMI 1640, culture 2-7 days
Protocol: as §1, §2, §3

A375 = assay: In vitro anticancer MTT experiment; conditions: Homo sapiens, A-375, concentration 5 ug/ml, 48 h or 72 h, read-out: inhibition ratio A375
Protocol: (§4) In vitro anticancer experiments of 25 compounds as anti-bacterial and anti-cancer compounds in the patent were tested. In the test, 14 kinds of cancer cells were used as tested cancer cells. And the results obtained by MTT method were shown in table 2 (the inhibition ratio was obtained when the concentration was 5 ug/ml). Tested Cancer Cells: SGC7901, HTB-38HT-29, CRL-2233NU-398, CRL-1469PANC-1, B0192, HTB-131MDA-453, CRL-1435PC-3, FTC133, AS24391, HTB-95637. (Cancer cells were from Chinese Military Academy of Medical Sciences). Cells Culture: Culture solution was composed of RPMI 1640 medium, 10% (VAT) Fetal calf serum and 0.01% L-glutamine. Cultured cells were maintained at 37° C. in an incubator with 5% CO2. The cells at logarithmic growth phase were used in the experiment. MTT Experiment: Single cell suspension was obtained by digesting cells with 0.25% trypsin. The cells at logarithmic growth phase were collected and seeded in a 96-well plate at a concentration of 6000-7000 cells per well. After culturing for 12 h at 37° C. in the incubator with 5% CO2, the cells were again incubated with the tested compounds of various concentrations for 48 h or 72 h. Pure cultures and cells without drug were taken as blank reference and negative reference, and 8 Wells of each group were taken. Twenty microliter of MTT (5 mg/mL) was added to each well, and the mixed solutions were incubation for 4 h. The formazan product was dissolved by dimethyl sulfoxide (DMSO, 150 μL), and the optical density (O.D.) was read at 570 nm. The Inhibition Ratio was calculated by the following formula: Inhibition Ratio=(Anegative control−Asample)/(Anegative control−Ablank control)

AS24391 = assay: In vitro anticancer MTT experiment; conditions: concentration 5 ug/ml, 48 h or 72 h, read-out: inhibition ratio AS24391
Protocol: as §4

B01092 = assay: In vitro anticancer MTT experiment; conditions: concentration 5 ug/ml, 48 h or 72 h, read-out: inhibition ratio B01092
Protocol: as §4

CRL-1435PC-3 = assay: In vitro anticancer MTT experiment; conditions: concentration 5 ug/ml, 48 h or 72 h, read-out: inhibition ratio CRL-1435PC-3
Protocol: as §4

CRL-1469PANC-1 = assay: In vitro anticancer MTT experiment; conditions: concentration 5 ug/ml, 48 h or 72 h, read-out: inhibition ratio CRL-1469PANC-1
Protocol: as §4

CRL-2233SNU-398 = assay: In vitro anticancer MTT experiment; conditions: concentration 5 ug/ml, 48 h or 72 h, read-out: inhibition ratio CRL-2233SNU-398
Protocol: as §4

FTC 133 = assay: In vitro anticancer MTT experiment; conditions: Homo sapiens, concentration 5 ug/ml, 48 h or 72 h, read-out: inhibition ratio FTC 133
Protocol: as §4

HTB-131MDA-MB-453 = assay: In vitro anticancer MTT experiment; conditions: concentration 5 ug/ml, 48 h or 72 h, read-out: inhibition ratio HTB-131MDA-MB-453
Protocol: as §4

HTB-38HT-29 = assay: In vitro anticancer MTT experiment; conditions: concentration 5 ug/ml, 48 h or 72 h, read-out: inhibition ratio HTB-38HT-29
Protocol: as §4

HTB-94 = assay: In vitro anticancer MTT experiment; conditions: concentration 5 ug/ml, 48 h or 72 h, read-out: inhibition ratio HTB-94
Protocol: as §4

HTB-95637 = assay: In vitro anticancer MTT experiment; conditions: concentration 5 ug/ml, 48 h or 72 h, read-out: inhibition ratio HTB-95637
Protocol: as §4

L1210 = assay: In vitro anticancer MTT experiment; conditions: Mus musculus, concentration 5 ug/ml, 48 h or 72 h, read-out: inhibition ratio L1210
Protocol: as §4

L428 = assay: In vitro anticancer MTT experiment; conditions: Homo sapiens, L-428, concentration 5 ug/ml, 48 h or 72 h, read-out: inhibition ratio L428
Protocol: as §4

SGC7901 = assay: In vitro anticancer MTT experiment; conditions: Homo sapiens, SGC-7901, concentration 5 ug/ml, 48 h or 72 h, read-out: inhibition ratio SGC7901
Protocol: as §4

C. Krusei = assay: In vitro antibacterial (antifungal) test, two-fold dilution MIC; conditions: Pichia kudriavzevii, RPMI 1640, culture 2-7 days
Protocol: as §1, §2, §3

Setosphaeria turcica = assay: as above; conditions: Exserohilum turcicum, RPMI 1640, culture 2-7 days
Protocol: as §1, §2, §3

gibberella = assay: as above; conditions: RPMI 1640, culture 2-7 days
Protocol: as §1, §2, §3

Structure (SMILES)	MIC (C. albicans)	MIC (C. glabrata)	MIC (C. neoformans)	MIC (C. parapsilosis)	MIC (C. tropicalis)	MIC (E. floccosum)	MIC [1]	MIC (M. gypseum)	MIC (S. schenekn)	MIC (Terchoderma)	inhibition at 5 µg/mL (A375)	inhibition at 5 µg/mL (AS24391)	inhibition at 5 µg/mL (B01092)	inhibition at 5 µg/mL (CRL-1435PC-3)	inhibition at 5 µg/mL (CRL-1469PANC-1)	inhibition at 5 µg/mL (CRL-2233SNU-398)	inhibition at 5 µg/mL (FTC 133)	inhibition at 5 µg/mL (HTB-131MDA-MB-453)	inhibition at 5 µg/mL (HTB-38HT-29)	inhibition at 5 µg/mL (HTB-94)	other results
Cc1ccc2c(c1)C(Cl)/C(=C/Cl)CS2 (stereo not drawn) [Compound 28, (E)-4-chloro-3-(chloromethylene)-6-methylthiochroman]	32 µg/mL (≈ 131 µM)	32 µg/mL (≈ 131 µM)	8 µg/mL (≈ 32.6 µM)	32 µg/mL (≈ 131 µM)	16 µg/mL (≈ 65.3 µM)	4 µg/mL (≈ 16.3 µM)	64 µg/mL (≈ 261 µM)	16 µg/mL (≈ 65.3 µM)	16 µg/mL (≈ 65.3 µM)	16 µg/mL (≈ 65.3 µM)	52.7%	72.3%	46.2%	65.2%	75.3%	56.3%	72.5%	56.8%	72.4%	62.2%	inhibition at 5 µg/mL (HTB-95637): 48.2%; inhibition at 5 µg/mL (L1210): 79.4%; inhibition at 5 µg/mL (L428): 66.7%; inhibition at 5 µg/mL (SGC7901): 63.3%
O=C1/C(=C/Cl)CSc2ccc(Cl)cc21 [Compound 4, (Z)-6-chloro-3-(chloromethylene)thiochroman-4-one]	4 µg/mL (≈ 16.3 µM)	16 µg/mL (≈ 65.3 µM)	4 µg/mL (≈ 16.3 µM)	2 µg/mL (≈ 8.16 µM)	8 µg/mL (≈ 32.6 µM)	2 µg/mL (≈ 8.16 µM)	32 µg/mL (≈ 131 µM)	16 µg/mL (≈ 65.3 µM)	4 µg/mL (≈ 16.3 µM)	16 µg/mL (≈ 65.3 µM)	50.4%	46.2%	56.7%	54.2%	68%	75.5%	46.5%	57.6%	67.3%	68%	MIC (C. Krusei): 32 µg/mL (≈ 131 µM); MIC (Setosphaeria turcica): 8 µg/mL (≈ 32.6 µM); inhibition at 5 µg/mL (HTB-95637): 52.8%; inhibition at 5 µg/mL (L1210): 82.3%; inhibition at 5 µg/mL (L428): 66.6%; inhibition at 5 µg/mL (SGC7901): 60.8%
O=C1/C(=C\Cl)SCc2ccccc21 [Compound 26, (E)-3-(chloromethylene)isothiochroman-4-one]	2 µg/mL (≈ 9.49 µM)	16 µg/mL (≈ 75.9 µM)	4 µg/mL (≈ 19 µM)	32 µg/mL (≈ 152 µM)	8 µg/mL (≈ 38 µM)	4 µg/mL (≈ 19 µM)	4 µg/mL (≈ 19 µM)	16 µg/mL (≈ 75.9 µM)	8 µg/mL (≈ 38 µM)	8 µg/mL (≈ 38 µM)	–	–	–	–	–	–	–	–	–	–	MIC (C. Krusei): 8 µg/mL (≈ 38 µM); MIC (Setosphaeria turcica): 2 µg/mL (≈ 9.49 µM); MIC (gibberella): 16 µg/mL (≈ 75.9 µM)
O=C1/C(=C/Cl)CSc2ncccc21 [Compound 18, (Z)-3-(chloromethylene)-2H-thiopyrano[2,3-b]pyridin-4(3H)-one]	8 µg/mL (≈ 37.8 µM)	16 µg/mL (≈ 75.6 µM)	4 µg/mL (≈ 18.9 µM)	8 µg/mL (≈ 37.8 µM)	16 µg/mL (≈ 75.6 µM)	32 µg/mL (≈ 151 µM)	16 µg/mL (≈ 75.6 µM)	32 µg/mL (≈ 151 µM)	4 µg/mL (≈ 18.9 µM)	16 µg/mL (≈ 75.6 µM)	67.8%	63.5%	67.7%	41%	56.4%	46.6%	55%	77.1%	63.5%	49%	MIC (C. Krusei): 32 µg/mL (≈ 151 µM); MIC (Setosphaeria turcica): 8 µg/mL (≈ 37.8 µM); inhibition at 5 µg/mL (HTB-95637): 56.4%; inhibition at 5 µg/mL (L1210): 76.8%; inhibition at 5 µg/mL (SGC7901): 47.5%
Cc1ccc2c(c1)C(=O)/C(=C/Br)CS2 [Compound 8, (Z)-3-(bromomethylene)-6-methylthiochroman-4-one]	32 µg/mL (≈ 119 µM)	64 µg/mL (≈ 238 µM)	8 µg/mL (≈ 29.7 µM)	32 µg/mL (≈ 119 µM)	64 µg/mL (≈ 238 µM)	64 µg/mL (≈ 238 µM)	64 µg/mL (≈ 238 µM)	64 µg/mL (≈ 238 µM)	32 µg/mL (≈ 119 µM)	32 µg/mL (≈ 119 µM)	37.9%	40%	39%	50.6%	47.9%	46.4%	75.6%	47.3%	54.9%	56.7%	MIC (C. Krusei): 64 µg/mL (≈ 238 µM); MIC (Setosphaeria turcica): 64 µg/mL (≈ 238 µM); inhibition at 5 µg/mL (HTB-95637): 56.4%; inhibition at 5 µg/mL (L1210): 84.6%; inhibition at 5 µg/mL (L428): 44.2%; inhibition at 5 µg/mL (SGC7901): 60.6%
